# Measurements from US20040034050A1, “Homo-camptothecin derivatives” (priority 2002, published 2004).
# System: VM46 cells
# Test: Cell colony formation assay
# Assay type: cell-based
# Conditions: drug concentration producing 50% inhibition of colony formation, incubated with drugs for 72 hours at 37° C., colonies counted after 8 days
# Protocol: This example provides directions for growing cells and testing compounds of the invention for their effect on the growth of the cells. All cells are purchased from DCTDC Tumor Repository, NCI, NIH.
# Cell Colony Formation Assay
# Five hundred cells (VM46) were plated in 60 mm Petri dishes containing 2.7 ml of medium (modified McCoy's 5a medium containing 10% bovine calf serum and 100 units/ml penicillin and […] streptomycin). The cells were incubated in a CO2 incubator at 37° C. for 5 hours for attachment to the bottom of Petri dishes. Drugs were made fresh in medium at ten times the final concentration, and then 0.3 ml of this stock solution was added to the 2.7 ml of medium in the dish. The cells were then incubated with drugs for 72 hours at 37° C. At the end of the incubation the drug-containing media were decanted, the dishes were rinsed with 4 ml of Hank's Balance Salt Solution (HBSS), 5 ml of fresh medium is added, and the dishes are returned to the incubator for colony formation. The cell colonies were counted using colony counter after incubation for 8 days for VM46 cells.
# Values of ID50 (the drug concentration producing 50% inhibition of colony formation) may be determined for each tested compound.
row,Structure (SMILES),Values of ID 50
1,"CC[C@@]1(O)CC(=O)OCc2c1cc1n(c2=O)Cc2cc3ccccc3nc2-1 (racemic) [homo-campothecin, homo-camptothecin]",4 nM
2,"CCC1(OC(=O)COc2cccc(Cl)c2Cl)CC(=O)OCc2c1cc1n(c2=O)Cc2cc3ccccc3nc2-1 (centres unmarked) [Example 1158, Homocamptothecin-20-O Ester of 2,3-Dichlorophenoxy Acetic Acid]",1.5 nM
3,"CCC1(OC(=O)COc2ccc(F)cc2)CC(=O)OCc2c1cc1n(c2=O)Cc2cc3ccccc3nc2-1 (centres unmarked) [Example 1160, Homo-camptothecin-20-O-ester of 4-Fluorophenoxyacetic Acid]",1.5 nM
4,"CCC1(OC(=O)COc2ccc(OC(F)(F)F)cc2)CC(=O)OCc2c1cc1n(c2=O)Cc2cc3ccccc3nc2-1 (centres unmarked) [Example 1164, Homo-camptothecin-20-O-ester of 4-Trifluoromethoxyphenoxyacetic Acid]",3.5 nM
5,"CCC1(OC(=O)COc2ccccc2Cl)CC(=O)OCc2c1cc1n(c2=O)Cc2cc3ccccc3nc2-1 (centres unmarked) [Example 021229, Homocamptothecin-20-O Ester of 2-Chlorophenoxy Acetic Acid]",2 nM
